The source of these data is ChEMBL document CHEMBL1201862, “PubChem BioAssay data set” (2004).

Each structure is given as a SMILES string.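 96-well plates; 48 h exposure; 5 concentrations. Endpoints by linear interpolation between flanking doses. Not reached: highest tested concentration assigned. GI50 = concentration required for 50% inhibition of growth.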 Active and inactive are the calls of the source. Rule as the data show it: active = GI50 up to about 1.1 µM and inactive = higher.

Test systems include 786-0; A549; CAKI-1; CCRF-CEM; DU-145; HOP-92; HT-29; K562; MDA-MB-435; NCI-H226; OVCAR-5; SF-295; SK-MEL-2; SK-OV-3; SN12C; SNB-19; SR; T47D; U-251; UACC-257.
Common to all, as to assay: NCI anticancer screen, dose series, 48 h

For the compound `CN(C)CCCOC(=O)C(c1ccccc1)C1(O)CCSCC1` (stereo not given), the GI50 in the test with 786-0 was > 100 µM (inactive); with A549 it was > 100 µM (inactive); in the test on CAKI-1, 32.7 µM (inactive); in the test on CCRF-CEM, > 100 µM (inactive); with DU-145, > 100 µM (inactive); in the test on HOP-92 it was > 100 µM (inactive). Also, the GI50 in the test on HT-29 is > 100 µM (inactive); in the test on K562, > 100 µM (inactive); in the test with MDA-MB-435 it was > 100 µM (inactive); in the test on NCI-H226, 79.1 µM (inactive); with OVCAR-5, > 100 µM (inactive); in the test with SF-295 it was > 100 µM (inactive). In addition, the GI50 in the test with SK-MEL-2 is > 100 µM (inactive); with SK-OV-3, > 100 µM (inactive); with SN12C it was > 100 µM (inactive); with SNB-19 it was 26.8 µM (inactive); in the test on SR it was > 100 µM (inactive); with T47D, > 100 µM (inactive). In addition, the GI50 in the test on U-251 and in the test on UACC-257 was > 100 µM (inactive) throughout.
In the case of `CCOC(=O)c1oc2cc3c(c4c2c1-c1ccccc1N4C)C=CC(C)(C)O3`, the GI50 in the test with 786-0 was 7.06 µM (inactive); with A549, 24.5 µM (inactive); in the test with CAKI-1, 15.9 µM (inactive); in the test with CCRF-CEM, 12.4 µM (inactive); in the test with DU-145, 18.7 µM (inactive); in the test on HOP-92 it was 3.72 µM (inactive). For the same compound, the GI50 was 9.51 µM (inactive) in the test with HT-29; 6.71 µM (inactive) in the test on K562; 52.1 µM (inactive) in the test with MDA-MB-435; 16.8 µM (inactive) with NCI-H226; 29.9 µM (inactive) in the test with OVCAR-5; 8.81 µM (inactive) in the test on SF-295. Moreover, the GI50 is 26.6 µM (inactive) with SK-MEL-2; 13.4 µM (inactive) in the test on SK-OV-3; 40.6 µM (inactive) in the test with SN12C; 14.7 µM (inactive) in the test on SNB-19; 0.56 µM (active) in the test with SR; 16.9 µM (inactive) with T47D. Besides, the GI50 was 7.5 µM (inactive) with U-251 and 31.2 µM (inactive) with UACC-257.
Take `O=c1[nH]nc(Cc2ccc(Cl)cc2)n1/N=C/c1cccs1`: the GI50 in the test on 786-0 was 26.6 µM (inactive); in the test with A549, 64.9 µM (inactive); in the test on CAKI-1 it was 36.5 µM (inactive); in the test with CCRF-CEM it was > 100 µM (inactive); with DU-145, 99.8 µM (inactive); with HOP-92, 24.6 µM (inactive). Further, the GI50 in the test with HT-29 was 14 µM (inactive); in the test with K562, > 100 µM (inactive); in the test on MDA-MB-435 it was > 100 µM (inactive); in the test on NCI-H226 it was 43.5 µM (inactive); in the test with OVCAR-5 it was 73.3 µM (inactive); with SF-295, 18.9 µM (inactive). Further, the GI50 was 22.4 µM (inactive) in the test with SK-MEL-2; 43.9 µM (inactive) in the test with SK-OV-3; 29.2 µM (inactive) with SN12C; 20.4 µM (inactive) in the test with SNB-19; > 100 µM (inactive) in the test on SR; > 100 µM (inactive) in the test on T47D. Moreover, the GI50 is 28.4 µM (inactive) with U-251 and > 100 µM (inactive) in the test with UACC-257.
On to `N=C(N)SCc1nc(-c2ccc(Cl)cc2)no1`, for which the GI50 in the test on 786-0 was 14.3 µM (inactive); in the test on A549, 38.4 µM (inactive); in the test on CAKI-1, 14 µM (inactive); in the test on CCRF-CEM, 3.84 µM (inactive); with DU-145, 15.7 µM (inactive); in the test on HOP-92, 29.1 µM (inactive). The GI50 with HT-29 is 10.2 µM (inactive); in the test with K562 it was 5.71 µM (inactive); in the test with MDA-MB-435, 12.2 µM (inactive); in the test with NCI-H226 it was > 100 µM (inactive); in the test with OVCAR-5 it was 10.3 µM (inactive); in the test on SF-295 it was 17.9 µM (inactive). The GI50 with SK-MEL-2 is 13.2 µM (inactive); in the test on SK-OV-3, 26.9 µM (inactive); with SN12C it was 17.8 µM (inactive); in the test on SNB-19, 38.2 µM (inactive); with SR, 4.48 µM (inactive); in the test with T47D, 11.3 µM (inactive). The GI50 in the test on U-251 was 21.7 µM (inactive); in the test with UACC-257, 30.5 µM (inactive).
